From US20160298165A1 (priority 2013, published 2016)

Assays:
M. tuberculosis H37Rv = type: cell-based, Mycobacterium tuberculosis
[1] = system: M. tuberculosis H37Rv ΔRD1 ΔpanCD; type: cell-based; details: treated for 3 days
[2] = system: M. tuberculosis mc26230 (H37Rv ΔRD1 ΔpanCD); type: cell-based; details: anaerobic chamber; 4 mM VC
M. tuberculosis [3] = type: cell-based, Mycobacterium tuberculosis
M. tuberculosis [4] = type: cell-based, Mycobacterium tuberculosis; remark: listed apart in the source
[5] = system: M. tuberculosis H37Rv ΔRD1 ΔpanCD; type: cell-based; details: cysteine 4 mM, 24 h
[6] = system: M. tuberculosis H37Rv ΔRD1 ΔpanCD; type: cell-based; details: cysteine 4 mM, 24 h; remark: listed apart in the source
M. tuberculosis [7] = type: cell-based, Mycobacterium tuberculosis; remark: listed apart in the source

OC(CS)C(O)CS (stereo not drawn) [Dithio- threitol]
sterilization of cultures when combined with INH (M. tuberculosis H37Rv): sterilized

CC[C@@H](CO)NCCN[C@@H](CC)CO [EMB, Ethambutol, reference compound]
decrease in CFU (M. tuberculosis H37Rv): very slow decrease

NNC(=O)c1ccncc1 [INH, Isoniazid]
intracellular levels of ferrous ions vs untreated sample [1]: very high | decrease in CFUs (M. tuberculosis H37Rv): 3-4 log

O=C1O[C@H]([C@@H](O)CO)C(O)=C1O [VC, Vitamin C]
effect on M. tuberculosis viability [2]: no effect | increase in total ROS (M. tuberculosis [3]): Up to threefold | total ROS concentration relative to the untreated sample (M. tuberculosis [3]): did not substantially alter | cells with DNA breaks relative to untreated culture or culture treated with VE (M. tuberculosis [4]): tenfold higher | percentage of cells with DNA breaks (M. tuberculosis [4]): 17-25%

Cc1c(C)c2c(c(C)c1O)CC[C@@](C)(CCC[C@H](C)CCC[C@H](C)CCCC(C)C)O2 [VE, vitamin E, reference compound]
ROS level vs untreated samples (M. tuberculosis [3]): lowered ROS level

N[C@@H](CS)C(=O)O [cysteine]
decrease in CFUs (M. tuberculosis H37Rv): 6 log | effect of cysteine on killing of M. tuberculosis by ETH (M. tuberculosis H37Rv): did not increase the killing | growth of M. tuberculosis with cysteine alone (M. tuberculosis H37Rv): not affected | cystine concentration vs untreated sample [5]: 100 times | levels of free thiols [6]: lower

Cc1ccc2ccc3ccc(C)nc3c2n1 [neocuproine, reference compound]
decrease in CFUs (M. tuberculosis H37Rv): 5 log | growth of M. tuberculosis with neocuproine alone (M. tuberculosis H37Rv): no impact on the growth

Antimycin
cidal activity (M. tuberculosis [7]): no cidal activity
